The values that follow are results of earlier work, collected in patent publication US8771712B2, “Topical administration of acyclovir” (Emisphere Technologies, Inc., priority 2006, dated 2014).

Molecules are shown by their SMILES.

For this data set the following is noted: humans, microdialysis.

Turning to `Nc1nc2c(ncn2COCCO)c(=O)[nH]1` [acyclovir, 9-(2-hydroxyethoxymethyl) guanine], under “after removal of the stratum corneum and infusion of 0.0005% noradrenaline”, the “Acyclovir concentration (dermis)” value is 3.9 µg/mL. The “Acyclovir in the dermis” value (application to intact skin) was “no acyclovir was detected”.
